This is an account of results in PubChem BioAssay (NCI).

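Tested at 5 concentrations; 48 h exposure; 96-well plates; endpoints linearly interpolated, else capped at highest concentration. Abbreviation: GI50, concentration required for 50% inhibition of growth. TGI: total growth inhibition.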

What all share (assay): inhibition of tumour cell growth, NCI panel, 48 h
In assay [1] the test system is MDA-MB-231 breast.
Assay [2] has as its system 786-0 renal.
Assay [3] deals with NCI-H23 lung.
For assay [4], the system named is HOP-62 NSCLC.
In assay [5] the test system is LOX IMVI melanoma.
Assay [6] has as its system OVCAR-4 ovarian.
For assay [7], the system named is DU-145 prostate.
In assay [8] the test system is HCT-116 colon.
The subject of assay [9] is COLO 205 colon.
The subject of assay [10] is NCI-H522 lung.

`O=C(NO)[C@@H](Cc1ccccc1)NS(=O)(=O)c1ccc(-c2ccccc2)cc1`: the GI50 in [1] is above 25 µM; in assay [2] it was 11.9 µM; in assay [3] it was above 25 µM; in assay [4], 18.1 µM; in assay [5], 11.9 µM; in assay [6], above 25 µM. Further, the GI50 in assay [7] is 11.1 µM; in assay [8], 11.7 µM; in assay [9], above 25 µM; in [10] it was above 25 µM. Further, the TGI in assay [1], in [2], in [3], in assay [4], in assay [5] and in [6] was above 25 µM in each case. For the same compound, the TGI in assay [7], in [8], in [9] and in assay [10] was above 25 µM in each case.
On to `O=C(Nc1cccc(-c2ccc(Cl)c(C(F)(F)F)c2)c1)C1CCN(Cc2cccc3cccnc23)CC1`, for which the GI50 in [1] is 1.84 µM; in assay [2], 1.7 µM; in [3], 1.64 µM; in [4], 1.85 µM; in assay [5] it was 1.5 µM; in assay [6], 1.59 µM. Besides, the GI50 in assay [7] was 1.79 µM; in [8] it was 1.26 µM; in [9], 1.45 µM; in [10], 1.73 µM. In addition, the TGI in assay [1] came to 3.41 µM; in assay [2], 3.26 µM; in [3], 3.19 µM; in assay [4], 3.74 µM; in assay [5], 2.89 µM; in assay [6], 3.08 µM. The TGI in assay [7] worked out at 3.21 µM; in assay [8], 2.76 µM; in [9], 3.12 µM; in assay [10], 3.68 µM.
Take `[N-]=[N+]=NCCCn1c2c(c3ccc([N+](=O)[O-])cc3c1=O)C(=O)c1cc(F)ccc1-2`: the GI50 in assay [1] is 30.3 µM; in [2], 0.334 µM; in assay [3] it was 2.69 µM; in [4] it was 0.32 µM; in [5], 0.343 µM; in assay [6], 16.2 µM. Besides, the GI50 in assay [7] is 0.547 µM; in assay [8], 0.388 µM; in assay [9] it was 9.26 µM; in [10], 0.853 µM. Moreover, the TGI in assay [1] is above 100 µM; in assay [2], 2.01 µM; in [3], 19 µM; in assay [4], 7.04 µM; in assay [5] it was 1.86 µM; in [6], above 95.7 µM. Moreover, the TGI in [7] was above 63.5 µM; in assay [8] it was 3.3 µM; in assay [9], above 100 µM; in assay [10] it was 12.2 µM.
Take `O=C(N/N=C/c1ccc(O)cc1O)c1cccc(Nc2ccnc(C(F)(F)F)c2)c1`: the GI50 in assay [1] was 1.08 µM; in [2], 1.14 µM; in assay [3], 3.8 µM; in assay [4] it was 0.709 µM; in assay [5], 0.501 µM; in assay [6], 0.573 µM. In addition, the GI50 in [7] was 1.93 µM; in assay [8] it was 0.535 µM; in [9] it was 0.554 µM; in assay [10], 1.27 µM. For the same compound, the TGI in assay [1] was 51.8 µM; in [2] it was 10.6 µM; in assay [3], 27.4 µM; in [4], 24.7 µM; in assay [5], 12.5 µM; in assay [6] it was 51.5 µM. The TGI in assay [7] was found to be 20.9 µM; in [8] it was 20.5 µM; in assay [9], 15 µM; in assay [10] it was 22.6 µM.
On to `Oc1ccc(C2c3ccccc3Oc3ccccc32)c2cccnc12`, for which the GI50 is 4.36 µM in assay [1]; 1.64 µM in assay [2]; 2.26 µM in [3]; 0.979 µM in [4]; 0.778 µM in assay [5]; 2.08 µM in assay [6]. For the same compound, the GI50 in assay [7] is 1.94 µM; in assay [8], 0.852 µM; in [9], 3.18 µM; in assay [10], 2.57 µM. The TGI in assay [1] is above 100 µM; in assay [2], 4.85 µM; in [3], above 100 µM; in [4], above 100 µM; in [5] it was above 100 µM; in [6], above 100 µM. The TGI in assay [7], in [8], in assay [9] and in assay [10] was above 100 µM each time.
In the case of `OCCNc1nc(Nc2ccc(Cl)c(Cl)c2)nc2ccccc12`, the GI50 in assay [1] is 1.97 µM; in [2], 3.04 µM; in assay [3], 10.3 µM; in assay [4] it was 5.39 µM; in assay [5] it was 3.38 µM; in assay [6], 4.64 µM. Further, the GI50 is 11 µM in assay [7], 3.52 µM in assay [8], 1.6 µM in assay [9] and 10 µM in assay [10]. The TGI was 5.4 µM in [1]; 11 µM in [2]; 25.1 µM in [3]; 19.5 µM in assay [4]; 11.9 µM in assay [5]; 18.4 µM in assay [6]. The TGI in assay [7] stood at 22.9 µM; in assay [8], 14.6 µM; in assay [9], 3.07 µM; in assay [10], 24.5 µM.
As for `C/C(=C\c1cc(C(F)(F)F)n(-c2ccc(N)cc2)n1)[C@@H]1C[C@@H]2O[C@]2(C)CCC[C@H](C)[C@H](O)[C@@H](C)C(=O)C(C)(C)[C@@H](O)CC(=O)O1`, the GI50 in [1] is 0.137 µM; in [2], 0.0614 µM; in assay [3] it was 0.0829 µM; in [4], 0.0762 µM; in [5], 0.0312 µM; in [6] it was 2.19 µM. The GI50 in assay [7] was 0.0372 µM; in assay [8], 0.00775 µM; in [9], 0.0162 µM; in [10], 0.0233 µM. In addition, the TGI in assay [1], in [2], in assay [3], in assay [4], in [5] and in [6] was above 11.1 µM throughout. The TGI is 0.265 µM in assay [7], above 5.49 µM in assay [8], 0.582 µM in assay [9] and 0.0839 µM in assay [10].
